According to US20230272002A1, “PHOTOREDOX PROTEIN MODIFICATION” (THE ROSALIND FRANKLIN INSTITUTE, priority 2020, published 2023):

T1: KDM4A (Homo sapiens, UniProt O75164)
T1 sequence (O75164 1-1064): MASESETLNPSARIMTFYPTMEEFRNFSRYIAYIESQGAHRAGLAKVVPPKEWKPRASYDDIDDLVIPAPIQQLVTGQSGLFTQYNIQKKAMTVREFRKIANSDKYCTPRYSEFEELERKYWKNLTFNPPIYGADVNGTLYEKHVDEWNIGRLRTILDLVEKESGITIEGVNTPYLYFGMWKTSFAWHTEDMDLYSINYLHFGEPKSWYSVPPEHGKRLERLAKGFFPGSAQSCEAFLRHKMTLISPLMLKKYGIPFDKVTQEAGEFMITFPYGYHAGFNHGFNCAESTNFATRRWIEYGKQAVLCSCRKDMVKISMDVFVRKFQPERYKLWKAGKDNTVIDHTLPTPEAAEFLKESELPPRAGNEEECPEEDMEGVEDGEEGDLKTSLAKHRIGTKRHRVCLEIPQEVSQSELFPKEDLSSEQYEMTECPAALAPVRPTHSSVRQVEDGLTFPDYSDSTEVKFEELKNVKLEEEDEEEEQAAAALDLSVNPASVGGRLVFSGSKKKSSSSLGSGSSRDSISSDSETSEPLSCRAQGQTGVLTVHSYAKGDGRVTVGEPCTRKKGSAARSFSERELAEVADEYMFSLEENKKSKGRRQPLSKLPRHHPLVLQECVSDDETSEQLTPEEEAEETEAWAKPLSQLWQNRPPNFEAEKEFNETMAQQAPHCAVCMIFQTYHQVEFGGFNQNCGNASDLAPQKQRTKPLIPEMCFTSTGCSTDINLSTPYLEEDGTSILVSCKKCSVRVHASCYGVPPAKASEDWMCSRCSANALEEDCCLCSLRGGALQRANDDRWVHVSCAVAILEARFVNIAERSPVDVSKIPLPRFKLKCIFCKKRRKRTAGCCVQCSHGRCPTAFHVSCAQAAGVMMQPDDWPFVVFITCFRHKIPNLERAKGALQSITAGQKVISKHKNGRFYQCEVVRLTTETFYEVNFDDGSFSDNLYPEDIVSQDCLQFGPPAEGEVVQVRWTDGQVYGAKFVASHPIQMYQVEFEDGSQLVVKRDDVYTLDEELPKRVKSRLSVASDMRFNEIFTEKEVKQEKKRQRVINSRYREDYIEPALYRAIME

T2: Sirt2 (Homo sapiens, UniProt Q8IXJ6)
T2 construct: His tag (inferred from the HisTrap purification); made in house; host or cells: E. coli BL21(DE3)
T2 sequence (Q8IXJ6 1-389): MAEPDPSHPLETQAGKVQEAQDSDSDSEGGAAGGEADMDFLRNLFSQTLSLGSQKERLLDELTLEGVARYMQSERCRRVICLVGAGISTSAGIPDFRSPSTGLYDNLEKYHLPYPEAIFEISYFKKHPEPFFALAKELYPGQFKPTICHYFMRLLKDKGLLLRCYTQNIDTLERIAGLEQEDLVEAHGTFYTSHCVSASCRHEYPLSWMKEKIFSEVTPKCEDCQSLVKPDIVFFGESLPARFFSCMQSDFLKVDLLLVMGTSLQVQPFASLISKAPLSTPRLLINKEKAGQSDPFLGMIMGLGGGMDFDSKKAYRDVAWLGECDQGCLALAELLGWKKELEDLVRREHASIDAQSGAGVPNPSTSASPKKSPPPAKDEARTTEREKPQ


How the values were obtained:
KDM4A = target: T1, KDM4A; assay: Zn ejection assay (TSQ Zn(II) fluorophore); assay type: biochemical; details: 20 μM compound, 2 μM KDM4A
Procedure: Zn ejection assay was performed using N-(6-nethoxy-8-quinolyl)-p-toluenesulfonamide (TSQ) (Enzo) Zn(II) fluorophore as described with minor modifications28,33. In brief, assays were performed in 384 well black μCLEAR® non-binding plates (Grenier) using a reaction volume of 100 μL at 37° C. on a BMG CLARIOstar (360ex/490em). The plate was shaken (5 s, 700 rpm) before each reading, taken every 22 s for 270 cycles. Reactions consisted of […], 25 μM Ebselen or 20 μM H3 K9Bhn/H3-wt/4-bromobutylboronic acid, and those with enzyme contained 2 μM KDM4A all with 1.1% (v/v) DMSO in 50 mM HEPES (pH 7.5). Compounds and TSQ were added to the plate before initiating the assay with addition of KDM4A using the CLARIOstar injector (FIG. 4d). An internal calibration curve of ZnCl2 (0-2 μM) in 50 mM HEPES (pH 7.5) was included in each experiment to quantitate the concentrations of Zn(II) ejected. Data were normalised by subtracting a no enzyme control for that compound at each time point. Mean±standard deviation (n=3 technical replicates) was plotted for each time point using GraphPad Prism 5.0, representative data from three biological replicates is shown.
The rate of Zn(II) ejection was calculated from the slope of linear regression plotted over the linear region of Zn(II) ejection (from 946-3982 s) plotted in GraphPad Prism 5.0. […]

Cyclic voltammetry = assay type: physicochemical
Procedure: Catechol and 4-bromobutylboronic acid were obtained from Sigma-Aldrich and used as received without further purification. All solutions were made up using ultrapure water of resistivity not less than 18.2 MQ cm (Millipore) at 25° C. and degassed thoroughly with nitrogen (99.998%, BOC Gases plc) before use. Phosphate buffered saline (PBS) solution (pH=6.0) consisting of 43.85 mM sodium phosphate monobasic and 6.15 mM potassium phosphate dibasic.
All voltammetric measurements were recorded using an Autolab PGSTAT30 computer controlled potentiostat (Metrohm, Utrecht, The Netherlands). Experiments were performed in a thermostatted (25.0+0.3° C.) Faraday cage using a three-electrode set-up. A glassy carbon macroelectrode (diameter 3.0 mm, CH Instrument) was used as the working electrode, a saturated calomel electrode (SCE) as the reference electrode (SCE, ALS distributed by BASi, Tokyo, Japan) and a graphite rod as the counter electrode. Prior to each voltammetric experiment, renewal of the working electrode surface was achieved by polishing with alumina slurries in the size sequence 1.0 m, 0.3 m and 0.05 m, (Buehler Ltd, USA) followed by sonication in water and drying with nitrogen.

Sirt2 = target: T2, Sirt2; assay: Sirt2 deacylation of acylated histone H3-K18 (intact-protein LC-MS timecourse, 19F-NMR); assay type: biochemical; details: deacylation of γ-F2 labelled KAc side chain, protein 19F NMR
Text: H3-KAc18 and H3-KBzl8 were generated using BACED reagents (FIG. 4A).
The pySOOF reagents were also used to generate corresponding H—F labeled side chain analogues such as K[γF2]Ac and K[γF2] sidechains 2 k and 2f, respectively. […] Other sidechain variations could similarly be distinguished at different sites in the same protein e.g. H3.1-K9→H3.1-KAc9→H3.1-Kme39 (sidechains 2f→2 k→2j=δF −99.0→−98.0→−99.2) or H3.1-M27 (sidechain 2×δF −74.8) or H3.1-E9 (sidechain 2u δF −103.3). In this way, the diverse scope of available further sidechains allows this approach to be explored in numerous additional directions such as e.g. monitoring heteroatom variation (e.g. N→O, ‘deaza-oxo’ variant KOAc, sidechain 2r for H3.1-K18→H3.1-KOAc18, sidechains 2 k→2r) or even precisely assaying sidechain Met oxidation state (H3.1-M27→H3.1-Mox27→H3.1-Mox27, sidechains 2x→2y→2z).
Due to the site-selectivity of the insertion of this label and its excellent sensitivity in ‘zero background’, not only could chemical shift of ^19F signal be ‘read’ but also its multiplicity through correlated simulation (FIG. 4B).

Time-dependent release of Zn(II) from KDM4A observed (KDM4A) | Zn(II)-ejection rate (KDM4A; 50 mM HEPES pH 7.5, 37° C., slope of linear region 946-3982 s) | oxidation in the absence of catechol (Cyclic voltammetry; absence of catechol) | half potential Eox (irreversible oxidation event) (Cyclic voltammetry; catechol-enhanced conditions (1:12), saturated calomel reference electrode) | L/D selectivity preference (Sirt2) | ΔΔG of L/D selectivity (Sirt2) | Molecule
not | 0.805 ± 0.010 nM/min | no oxidation was observed | +0.93 V |  |  | OB(O)CCCCBr [Example 1u-precursor, 4-bromobutylboronic acid]
 |  |  |  | > 14 | > 1.58 kcal/mol | Sirt2: HDAC deacylation enzyme Sirt2 (protein, UniProt Q8IXJ6 2-389, looked up) NAD-dependent protein …: AEPDPSHPLETQAGKVQEAQDSDSDSEGGAAGGEADMDFLRNLFSQTLSLGSQKERLLDELTLEGVARYMQSERCRRVICLVGAGISTSAGIPDFRSPSTGLYDNLEKYHLPYPEAIFEISYFKKHPEPFFALAKELYPGQFKPTICHYFMRLLKDKGLLLRCYTQNIDTLERIAGLEQEDLVEAHGTFYTSHCVSASCRHEYPLSWMKEKIFSEVTPKCEDCQSLVKPDIVFFGESLPARFFSCMQSDFLKVDLLLVMGTSLQVQPFASLISKAPLSTPRLLINKEKAGQSDPFLGMIMGLGGGMDFDSKKAYRDVAWLGECDQGCLALAELLGWKKELEDLVRREHASIDAQSGAGVPNPSTSASPKKSPPPAKDEARTTEREKPQ
